{"source": "patent US8192962B2", "about": "“Processes for detecting toxic substances” (Daikin Industries, Ltd., priority 2001, dated 2012)", "test_system": "Unknown protein yeast genes", "assay": "DNA chip mRNA expression in yeast, unknown protein yeast genes (Table 1)", "assay_type": "cell-based, Saccharomyces cerevisiae S288C", "procedure,_shortened": "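In this screen, yeast in logarithmic growth are challenged for two hours with a toxic substance at a non-lethal inhibitory concentration. Their mRNA, converted to Cy3- or Cy5-labeled cDNA, hybridizes at 65° C. to a chip spanning every yeast gene, and expression is expressed as a ratio to untreated cells.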"}
{"compound": "[Cl][Hg][Cl]", "note": "[(3), HgCl2]", "values": [{"measurement": "The level of expressed mRNA in the presence of chemical substance/The level of expressed mRNA in the absence of chemical substance", "setting": "yeast gene YAL053W, incubated two hours with chemical substance", "value": 1.3}, {"measurement": "The level of expressed mRNA in the presence of chemical substance/The level of expressed mRNA in the absence of chemical substance", "setting": "yeast gene YBL048W", "value": 2.3}, {"measurement": "The level of expressed mRNA in the presence of chemical substance/The level of expressed mRNA in the absence of chemical substance", "setting": "yeast gene YBL107C", "value": 0.4}, {"measurement": "The level of expressed mRNA in the presence of chemical substance/The level of expressed mRNA in the absence of chemical substance", "setting": "yeast gene YDL072C, incubated two hours with chemical substance", "value": 3.5}, {"measurement": "The level of expressed mRNA in the presence of chemical substance/The level of expressed mRNA in the absence of chemical substance", "setting": "yeast gene YDL204W, incubated two hours with chemical substance", "value": 4.8}, {"measurement": "The level of expressed mRNA in the presence of chemical substance/The level of expressed mRNA in the absence of chemical substance", "setting": "yeast gene YDL222C, incubated two hours with chemical substance", "value": 1.5}, {"measurement": "The level of expressed mRNA in the presence of chemical substance/The level of expressed mRNA in the absence of chemical substance", "setting": "yeast gene YDR330W, incubated two hours with chemical substance", "value": 1.2}, {"measurement": "The level of expressed mRNA in the presence of chemical substance/The level of expressed mRNA in the absence of chemical substance", "setting": "yeast gene YDR411C, incubated two hours with chemical substance", "value": 1.8}, {"measurement": "The level of expressed mRNA in the presence of chemical substance/The level of expressed mRNA in the absence of chemical substance", "setting": "yeast gene YDR511W, incubated two hours with chemical substance", "value": 0.9}, {"measurement": "The level of expressed mRNA in the presence of chemical substance/The level of expressed mRNA in the absence of chemical substance", "setting": "yeast gene YDR545W, incubated two hours with chemical substance", "value": 0.6}, {"measurement": "The level of expressed mRNA in the presence of chemical substance/The level of expressed mRNA in the absence of chemical substance", "setting": "yeast gene YEL001C, incubated two hours with chemical substance", "value": 1.4}, {"measurement": "The level of expressed mRNA in the presence of chemical substance/The level of expressed mRNA in the absence of chemical substance", "setting": "yeast gene YER004W, incubated two hours with chemical substance", "value": 1.9}, {"measurement": "The level of expressed mRNA in the presence of chemical substance/The level of expressed mRNA in the absence of chemical substance", "setting": "yeast gene YER035W, incubated two hours with chemical substance", "value": 1.6}, {"measurement": "The level of expressed mRNA in the presence of chemical substance/The level of expressed mRNA in the absence of chemical substance", "setting": "yeast gene YER079W, incubated two hours with chemical substance", "value": 1.9}, {"measurement": "The level of expressed mRNA in the presence of chemical substance/The level of expressed mRNA in the absence of chemical substance", "setting": "yeast gene YER106W, incubated two hours with chemical substance", "value": 1.3}, {"measurement": "The level of expressed mRNA in the presence of chemical substance/The level of expressed mRNA in the absence of chemical substance", "setting": "yeast gene YER158C, incubated two hours with chemical substance", "value": 0.9}, {"measurement": "The level of expressed mRNA in the presence of chemical substance/The level of expressed mRNA in the absence of chemical substance", "setting": "yeast gene YER163C, incubated two hours with chemical substance", "value": 1.2}, {"measurement": "The level of expressed mRNA in the presence of chemical substance/The level of expressed mRNA in the absence of chemical substance", "setting": "yeast gene YER175C, incubated two hours with chemical substance", "value": 1.3}, {"measurement": "The level of expressed mRNA in the presence of chemical substance/The level of expressed mRNA in the absence of chemical substance", "setting": "yeast gene YFL006W, incubated two hours with chemical substance", "value": 1.6}, {"measurement": "The level of expressed mRNA in the presence of chemical substance/The level of expressed mRNA in the absence of chemical substance", "setting": "yeast gene YFL010C, incubated two hours with chemical substance", "value": 1.3}, {"measurement": "The level of expressed mRNA in the presence of chemical substance/The level of expressed mRNA in the absence of chemical substance", "setting": "yeast gene YFL024C", "value": 1.1}, {"measurement": "The level of expressed mRNA in the presence of chemical substance/The level of expressed mRNA in the absence of chemical substance", "setting": "yeast gene YFL032W, incubated two hours with chemical substance", "value": 1.6}, {"measurement": "The level of expressed mRNA in the presence of chemical substance/The level of expressed mRNA in the absence of chemical substance", "setting": "yeast gene YGL037C, incubated two hours with chemical substance", "value": 6.5}, {"measurement": "The level of expressed mRNA in the presence of chemical substance/The level of expressed mRNA in the absence of chemical substance", "setting": "yeast gene YGL047W, incubated two hours with chemical substance", "value": 1.6}, {"measurement": "The level of expressed mRNA in the presence of chemical substance/The level of expressed mRNA in the absence of chemical substance", "setting": "yeast gene YGL053W, incubated two hours with chemical substance", "value": 1.2}, {"measurement": "The level of expressed mRNA in the presence of chemical substance/The level of expressed mRNA in the absence of chemical substance", "setting": "yeast gene YGL121C", "value": 1.4}, {"measurement": "The level of expressed mRNA in the presence of chemical substance/The level of expressed mRNA in the absence of chemical substance", "setting": "yeast gene YGL199C, incubated two hours with chemical substance", "value": 1.7}, {"measurement": "The level of expressed mRNA in the presence of chemical substance/The level of expressed mRNA in the absence of chemical substance", "setting": "yeast gene YGR101W, incubated two hours with chemical substance", "value": 1.2}, {"measurement": "The level of expressed mRNA in the presence of chemical substance/The level of expressed mRNA in the absence of chemical substance", "setting": "yeast gene YGR110W", "value": 2.2}, {"measurement": "The level of expressed mRNA in the presence of chemical substance/The level of expressed mRNA in the absence of chemical substance", "setting": "yeast gene YGR130C, incubated two hours with chemical substance", "value": 0.6}, {"measurement": "The level of expressed mRNA in the presence of chemical substance/The level of expressed mRNA in the absence of chemical substance", "setting": "yeast gene YGR154C, incubated two hours with chemical substance", "value": 2.2}, {"measurement": "The level of expressed mRNA in the presence of chemical substance/The level of expressed mRNA in the absence of chemical substance", "setting": "yeast gene YGR221C, incubated two hours with chemical substance", "value": 0.9}, {"measurement": "The level of expressed mRNA in the presence of chemical substance/The level of expressed mRNA in the absence of chemical substance", "setting": "yeast gene YHR138C, incubated two hours with chemical substance", "value": 2.2}, {"measurement": "The level of expressed mRNA in the presence of chemical substance/The level of expressed mRNA in the absence of chemical substance", "setting": "yeast gene YHR199C, incubated two hours with chemical substance", "value": 3.2}, {"measurement": "The level of expressed mRNA in the presence of chemical substance/The level of expressed mRNA in the absence of chemical substance", "setting": "yeast gene YIL023C, incubated two hours with chemical substance", "value": 2.1}, {"measurement": "The level of expressed mRNA in the presence of chemical substance/The level of expressed mRNA in the absence of chemical substance", "setting": "yeast gene YIL041W, incubated two hours with chemical substance", "value": 2.1}, {"measurement": "The level of expressed mRNA in the presence of chemical substance/The level of expressed mRNA in the absence of chemical substance", "setting": "yeast gene YIL087C, incubated two hours with chemical substance", "value": 3.4}, {"measurement": "The level of expressed mRNA in the presence of chemical substance/The level of expressed mRNA in the absence of chemical substance", "setting": "yeast gene YJL057C, incubated two hours with chemical substance", "value": 1.6}, {"measurement": "The level of expressed mRNA in the presence of chemical substance/The level of expressed mRNA in the absence of chemical substance", "setting": "yeast gene YJL066C, incubated two hours with chemical substance", "value": 1.2}, {"measurement": "The level of expressed mRNA in the presence of chemical substance/The level of expressed mRNA in the absence of chemical substance", "setting": "yeast gene YJL082W, incubated two hours with chemical substance", "value": 2.4}, {"measurement": "The level of expressed mRNA in the presence of chemical substance/The level of expressed mRNA in the absence of chemical substance", "setting": "yeast gene YJL151C, incubated two hours with chemical substance", "value": 3.2}, {"measurement": "The level of expressed mRNA in the presence of chemical substance/The level of expressed mRNA in the absence of chemical substance", "setting": "yeast gene YJL152W, incubated two hours with chemical substance", "value": 1.8}, {"measurement": "The level of expressed mRNA in the presence of chemical substance/The level of expressed mRNA in the absence of chemical substance", "setting": "yeast gene YJL161W, incubated two hours with chemical substance", "value": 1.5}, {"measurement": "The level of expressed mRNA in the presence of chemical substance/The level of expressed mRNA in the absence of chemical substance", "setting": "yeast gene YJL171C, incubated two hours with chemical substance", "value": 2.8}, {"measurement": "The level of expressed mRNA in the presence of chemical substance/The level of expressed mRNA in the absence of chemical substance", "setting": "yeast gene YJR008W, incubated two hours with chemical substance", "value": 1.2}, {"measurement": "The level of expressed mRNA in the presence of chemical substance/The level of expressed mRNA in the absence of chemical substance", "setting": "yeast gene YJR054W, incubated two hours with chemical substance", "value": 0.3}, {"measurement": "The level of expressed mRNA in the presence of chemical substance/The level of expressed mRNA in the absence of chemical substance", "setting": "yeast gene YKL071W", "value": 5.4}, {"measurement": "The level of expressed mRNA in the presence of chemical substance/The level of expressed mRNA in the absence of chemical substance", "setting": "yeast gene YKL086W, incubated two hours with chemical substance", "value": 2.4}, {"measurement": "The level of expressed mRNA in the presence of chemical substance/The level of expressed mRNA in the absence of chemical substance", "setting": "yeast gene YKL151C, incubated two hours with chemical substance", "value": 1.7}, {"measurement": "The level of expressed mRNA in the presence of chemical substance/The level of expressed mRNA in the absence of chemical substance", "setting": "yeast gene YKL153W, incubated two hours with chemical substance", "value": 2.0}]}
